Laboratory results from patent US9382257B2, “Substituted pyrrolo[2,3-b]pyrazines as serine/threonine kinase inhibitors” (Genentech, Inc., priority 2002, dated 2016).

Target: T1, human ERK-2 (Homo sapiens, UniProt P28482)
T1 construct: n-terminal 6-His fusion protein in E. coli and corresponding to aa 8-360; 6-His (N); made in house; host or cells: E. coli
Experiment: Labchip Kinase ERK Assay (Example 3)
Assay type: biochemical
Conditions: LabChip Erk Assay (footnote 2), 25 μM ATP, Caliper LabChip 3000; read-out: ERK Inhibition IC50
Protocol: Compounds were tested in an enzymatic assay using human ERK-2 recombinantly expressed as an n-terminal 6-His fusion protein in E. coli and corresponding to aa 8-360. The substrate used was 5FAM-IPTSPITTTYFFFKKK-COOH (Caliper cat #760352). Test compounds were diluted in DMSO in 3-fold serial dilutions at 100× final concentrations. […] The assay was run at ambient temperature in a white 384-well polypropylene plate (Nunc, Inc of Naperville, Ill.; Cat. 267462) for 60 minutes then stopped by addition of EDTA. Percent substrate phosphorylated was determined by microfluidic separation using a Caliper LabChip 3000 instrument. Percent inhibition was plotted against compound concentration and IC50 values were determined using a four-parameter fit.

T1 sequence (P28482 8-360): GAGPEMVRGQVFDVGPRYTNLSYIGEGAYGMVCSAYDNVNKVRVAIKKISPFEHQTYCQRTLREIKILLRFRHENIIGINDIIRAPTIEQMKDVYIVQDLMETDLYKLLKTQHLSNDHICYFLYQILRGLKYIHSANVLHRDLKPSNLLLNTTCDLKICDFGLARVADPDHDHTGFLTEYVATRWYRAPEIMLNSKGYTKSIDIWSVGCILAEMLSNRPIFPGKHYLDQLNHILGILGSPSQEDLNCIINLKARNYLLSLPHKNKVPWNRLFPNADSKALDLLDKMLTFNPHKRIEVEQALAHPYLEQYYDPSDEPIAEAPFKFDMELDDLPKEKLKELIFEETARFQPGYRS

| IC50 [nM] | Compound |
| --- | --- |
| 343 | c1ccc(Cn2cc(-c3c[nH]c4ncc(-c5ccc6cn[nH]c6c5)nc34)cn2)cc1 [I-19, 7-(1-benzyl-1H-pyrazol-4-yl)-2-(1H-indazol-6-yl)-5H-pyrrolo[2,3-b]pyrazine] |
| 110 | Cc1noc(C)c1-c1cnc2[nH]cc(-c3cnn(Cc4ccccc4)c3)c2n1 [I-14, 7-(1-benzyl-1H-pyrazol-4-yl)-2-(3,5-dimethyl-isoxazol-4-yl)-5H-pyrrolo[2,3-b]pyrazine] |
| 105 | Cc1nn(C)c(C)c1-c1cnc2[nH]cc(-c3cnn(Cc4ccccc4)c3)c2n1 [I-13, 7-(1-benzyl-1H-pyrazol-4-yl)-2-(1,3,5-trimethyl-1H-pyrazol-4-yl)-5H-pyrrolo[2,3-b]pyrazine] |

Further lines, the compound ahead of its results:

| Compound | IC50 [nM] |
| --- | --- |
| Cc1cc(-c2c[nH]c3ncc(-c4ccncc4)nc23)cnc1Cl [II-6, 7-(6-chloro-5-methyl-pyridin-3-yl)-2-pyridin-4-yl-5H-pyrrolo[2,3-b]pyrazine] | 47.8 |
| Cc1cc(-c2c[nH]c3ncc(-c4ccncc4)nc23)cnc1F [II-1, 7-(6-fluoro-5-methyl-pyridin-3-yl)-2-pyridin-4-yl-5H-pyrrolo[2,3-b]pyrazine] | 53.1 |
| Cc1[nH]ncc1-c1cnc2[nH]cc(-c3cnn(Cc4cccc(OC(F)(F)F)c4)c3)c2n1 [I-22, 2-(5-methyl-1H-pyrazol-4-yl)-7-[1-(3-trifluoromethoxy-benzyl)-1H-pyrazol-4-yl]-5H-pyrrolo[2,3-b]pyrazine] | 14.9 |
| c1cncc(Cn2cc(-c3c[nH]c4ncc(-c5ccncc5)nc34)cn2)c1 [I-23, 2-pyridin-4-yl-7-(1-pyridin-3-ylmethyl-1H-pyrazol-4-yl)-5H-pyrrolo[2,3-b]pyrazine] | 65.8 |
| Cc1cc(-c2cnc3[nH]cc(-c4cnn(Cc5cccc(F)c5)c4)c3n2)ccn1 [I-12, 7-[1-(3-fluoro-benzyl)-1H-pyrazol-4-yl]-2-(2-methyl-pyridin-4-yl)-5H-pyrrolo[2,3-b]pyrazine] | 22.1 |
